Test results reported in patent publication US20200384134A1, “IMAGING METHOD OF AMPA RECEPTORS IN BRAIN OF PRIMATE ORGANISM, PROGRAM, DIAGNOSTIC AGENT, COMPANION DIAGNOSTIC AGENT, DRUG, SCREENING METHOD, INPUT TERMINAL, SERVER AND SYSTEM” (Public University Corporation Yokohama City University, priority 2017, published 2020).

Columns and labels:
[1] = system: AMPA receptors; assay: AMPA receptor binding test (electrophysiological verification) in vitro; assay type: cell-based; conditions: FIG. 5
[2] = system: WKY rat which was the depression model rat; assay: Forced swimming test using rat; assay type: in vivo; conditions: FIG. 10
Description: In a forced swimming test, AMPA receptor-binding compounds K-2 and K-4 were dissolved in 100% DMSO (Nacalai Tesque, Inc. Japan) so as to have a concentration of 2.1 mM, were diluted with saline immediately before being administered (15% DMSO, 320 μM) and were intravenously administered to the rat with an administered amount of 5 μl/weight (g) such that the administered amount fell within a range of 1 mg/kg to 1.5 mg/kg.
In all animal experiments, the deliberation and the approval of the animal experiment committee in Yokohama City University were received (approval number: F-A-15-051). As rats, adult male Wistar rats which were 6 to 10 weeks old and Wistar Kyoto rats (WKY rats) which were depression model rats (Charles River, Japan) were used. In order to acquire a route for the repeated administration of K-2, a jugular vein cannula indwelling surgery was performed a week before the experiment. The rat was made to fall sleep with isoflurane (DS Pharma Animal Health, Japan), and thereafter, while anesthesia was maintained at an isoflurane concentration of 1.5% (air 2 L/minute), the jugular vein cannula indwelling surgery was performed. The skin of a neck was incised about 3 cm such that subcutaneous fat was opened, and thus a jugular vein was exposed. […]

[3] = system: AMPA receptors in the brain; assay: PET imaging in humans (healthy persons); assay type: in vivo, human; conditions: about 370 MBq i.v.
Description: PET imaging was performed on two human subjects. […] Absorption correction CT imaging was performed for about one minute, and then [^11C] K-2 of about 370 MBq was administered, as a PET drug, intravenously over one minute. Thereafter, imaging was performed for 120 minutes. For the imaging, a PET/CT device “Aquiduo” (Toshiba Medical Systems Corporation) was used. In list data which was collected, dynamic images were reconstructed by an OS-EM method.
(§1) The reconstructed image was analyzed with the PMOD image analysis software (PMOD technologies) by integrating VOIs including a plurality of regions of frontal lobe, dentate cortex, hippocampus, amygdala, putamen, cerebellum, bridge and the like with one formed on a template MRI image. […]
as §1, with “image. As a calculation value used in quantitative determination, % SUV (% of standardized uptake value) was used.” for “image.”

Row | binding affinity to the AMPA receptors [1] | nonspecific accumulation caused by PET drug not bound to the AMPA receptors in the brain ([3]; between 30 and 60 minutes after administration, two human subjects) | uptake into the brain ([3]; healthy men, average 50 to 120 minutes, FIG. 12) | SMILES | immobile time, K-4 compared with K-2 ([2]; chronic administration, 1 mg/kg) | immobile time, chronic administration experiment ([2]; i.v. for 7 days, 1 mg/kg to 1.5 mg/kg, compared with 15% DMSO)
1 | indicated binding affinity |  |  | CN(C)C(=O)COc1c(F)cc(SCCN(C)S(=O)(=O)c2ccccc2)cc1F [Compound K-4, {4-[2-(benzenesulfonyl-methyl-amino)-ethylsulfanil]-2,6-difluoro-phenoxy}-N,N-dimethyl-acetamide] | significantly lowers the immobile time instead of K-2 | significantly lowered
2 |  | remarkably washed out | high | [11CH3]N(CCSc1cc(F)c(OCC(N)=O)c(F)c1)S(=O)(=O)c1ccccc1 [[^11C] K-2, [4-[2-(benzenesulfonyl-[^11C]methyl-amino)-ethylsulfanyl]-2,6-difluorophenoxy]-acetamide] |  | 
